Measurements published in patent publication US6495594B2, “Biologically active analogs of discodermolide” (Harbor Branch Oceanographic Institution, Inc., priority 2000, dated 2002).
pIC50: −log10 of the molar value. “Also recorded” adds a separate entry of the source.

What was measured:
[1] = system: A549 human adenocarcinoma; experiment: In vitro proliferation of A549 cells (MTT); type: cell-based; conditions: for pIC50: value in parentheses
Experimental: (§1) Discodermolide and discodermolide analogs were analyzed as to their effects on proliferation of A549 human adenocarcinoma and P388 murine leukemia cell lines. P388 cells were obtained from Dr. R. Camalier, National Cancer Institute, Bethesda, MD, and A549 cells were obtained from American Type Culture Collection, Rockville, MD. All cell lines were maintained in tissue culture medium (TCM; Roswell Park Memorial Institute RPMI 1640 supplemented with 100 U/mL penicillin, […], 60 […], 18 mM HEPES, 0.05 mg/mL gentamicin (Life Technologies, Gaithersburg, MD) and 10% fetal bovine serum) and cultured in plastic tissue culture flasks at 37° C. in humidified air containing 5% CO2. Stock cultures of P388 cells were subcultured 1:20 in fresh TCM every 2 to 3 days. Stock cultures of A549 cells were subcultured 1:10 every 3 to 4 days. To assess the antiproliferative effects of agents against the cells, 200 μL cultures (96-well tissue culture plates, Nunc, Denmark) were established at 1 ×10^5 cells/mL in TCM or TCM containing the test agent at 0.03-5.0 μg/mL. After 48-h exposures, P388 cells were enumerated using 3-[4,5-dimethylthiazol-2-yl]-2,5-diphenyltetrazolium bromide (MTT) as described in the literature (M. C. Alley, et al., Cancer Res. 48:589, 1988). A549 cells were enumerated in the same manner after 72 hours exposure. The results were expressed as percent inhibition compared to the negative (no drug) control. Positive drug controls of varying dilutions of 5-fluorouracil and adriamycin (Sigma Chemical Co., St Louis, MO) were included to monitor drug sensitivity of the cell line.
(§2) To quantitate the effects on cell proliferation and resulting IC50 values, 75 μL of warm growth media containing 5 mg/mL MTT is added to each well, cultures returned to the incubator, and left undisturbed for 3 hours. To spectrophotometrically quantitate formation of reduced formazan, plates are centrifuged (500×g, 10 minutes), culture fluids removed by aspiration, and 200 μL of acidified isopropanol (2 mL concentrated HCl /liter isopropanol) added per well. The absorbance of the resulting solutions is measured in a plate reader (TECAN Spectra SLT; TECAN U.S., Research Triangle Park, N.C.) at 570 nm and a 650 nm reference filter. The absorbance of test wells is divided by the absorbance of drug-free wells, and the concentration of agent that results in 50% of the absorbance of untreated cultures (IC50) is determined by linear regression of logit-transformed data (D. J. Finney, Statistical Method in Biological Assay, third ed., pp. 316-348, Charles Griffin Co., London, 1978). A linear relationship between tumor cell number and formazan production has been routinely observed over the range of cell densities observed in these experiments. The two standard drug controls (indicated above) are included in each assay as a check to monitor the drug sensitivity of each of the cell lines and IC50 values are determined for each drug-cell combination.

[2] = system: A549 human adenocarcinoma tumor cells; experiment: Microtubule bundling patterns in tumor cells by immunofluorescence; type: cell-based; set-up: key to Microtubule bundling in A549 cells: −: no effect; +/−: minimal or questionable effect; +: weak effect; ++: strong effect; +++: very strong effect equivalent to discodermolide; conditions: for Microtubule bundling in A549 cells: subjective rating versus discodermolide
Experimental: Discodermolide and discodermolide analogs were evaluated as to their effects on the morphology of the microtubule network of cells using mouse anti-alpha-tubulin monoclonal antibody.
On day one, 7×10^4 adherent A549 human adenocarcinoma tumor cells were cultured in TCM overnight at 37° C. in 5% CO2 on 22 mm^2 cover slips in 6-well microtiter plates. On day two, TCM was removed and replaced with 10-1000 nM discodermolide or analog in TCM or TCM without drug (control) and incubated overnight at 37° C. in 5% CO2. On day three, TCM was removed and cells attached to cover slips were fixed with a 3.7% formaldehyde solution in Dulbecco's PBS for 10 minutes at room temperature. Cells were permeabilized with a 2% Triton X-100 solution, 2 mL per well, for 5 minutes at room temperature and washed twice in Dulbecco's PBS prior to staining.
To each well containing cells attached to cover slips a 2 mL volume of mouse anti- alpha-tubulin monoclonal antibody (Cat# T-5168, Sigma Chemical Co., St. Louis, Mo.) diluted 1:1000 in Dulbecco's phosphate buffered saline (D-PBS) was added and the cells incubated at room temperature for 45 minutes. Cover slips were rinsed once with D-PBS. A 2 mL volume of goat-anti-mouse-IgG-FITC conjugated antibody (Cat# T-5262, Sigma Chemical Co., St. Louis, Mo.) diluted 1:1000 in D-PBS was added and the cells incubated at room temperature for 45 minutes. Cover slips were rinsed once in D-PBS and DNA was stained with 0.02 mg/mL propidium iodide together with 0.1 mg/mL of ribonuclease A (RNAse) A in D-PBS at 37° C. for 30 minutes. Cover slips were rinsed three times with sterile distilled water, air-dried and mounted on slides with SlowFade™ antifade solution (Molecular Probes, Eugene, Oreg.) and observed under the microscope using epifluorescence illumination for the presence of abnormal aster and microtubule bundle formations.

[3] = system: P388 murine leukemia cell lines; experiment: In vitro proliferation of P388 cells (MTT); type: cell-based; conditions: for pIC50: value in parentheses
Experimental: as §1, §2

[4] = system: purified bovine brain tubulin; experiment: Tubulin polymerization (optical density at 350 nm); type: biochemical; set-up: key to Purified tubulin polymerization by 10 μM / Purified tubulin polymerization at 10 μM: −: no effect; +/−: minimal or questionable effect; +: weak effect; ++: strong effect; +++: very strong effect equivalent to discodermolide; conditions: 10 μM compound, 1 mg/mL tubulin; for Purified tubulin polymerization, temperature at which polymerization commences: temperature ramp 4 to 35° C.; for Purified tubulin polymerization at 10 μM: Table 12
Experimental: (§3) Compounds were tested at 10 μM with 1 mg/mL tubulin. The temperature was varied during the course of the experiment as follows: the experiment was begun with an initial temperature of 4° C. and held for 1 minute; the temperature was then increased to 35° C. at a rate of 1° C./minute, held at 35° C. for 1 minute, decreased to 4° C. at a rate of 2° C/minute, and finally held at 4° C. for 14 minutes. The curves shown are for compounds: discodermolide (I); 2-desmethyldiscodermolide (II); 19-desaminocarbonyldiscodermolide (III); 2-epidiscodermolide (IV); and 3-deoxy-2A-discodermolide (VI).
as §3, with “C./minute,” for “C/minute,”, “for” for “for compounds:”, “8,21,23-hexahydrodiscodermolide (XII)” for “2-desmethyldiscodermolide (II); 19-desaminocarbonyldiscodermolide (III); 2-epidiscodermolide (IV);”, “7-deoxy-8,21,23-hexahydrodiscodermolide (XIII).” for “3-deoxy-2A-discodermolide (VI).”
Polymerization of purified bovine brain tubulin (Cytoskeleton Inc., Denver, Colo.) was followed by changes in the optical density of tubulin solutions at 350 nm in a Hitachi U-3010 spectrophotometer equipped with a SPR-10 electronic thermostatted cell holder. Stock solutions of tubulin were diluted on ice in G-PEM buffer (1 mM GTP, 80 mM PIPES, 1 mM EGTA, 0.5 mM magnesium chloride; pH 6.8) to a final concentration of 1 mg/mL. The instrument was zeroed on this solution at 4° C. Discodermolide, and its analogs, were then added to the tubulin solution to a final concentration of 10 μM, quickly mixed, and the absorbance monitored over a period of 61 minutes. Within this time the temperature of the thermoelectric cell holder was held at 4° C. for 1 minute, increased to 35° C. at a rate of 1° C./minute, reduced back to 4° C. at a rate of 2° C./minute, and held at 4° C. for an additional 14 minutes.

A549 human lung cells = experiment: Cell cycle progression by flow cytometry; type: cell-based
Experimental: Cell cycle studies were initiated in order to pinpoint a specific phase within the cell cycle in which discodermolide analogs were exerting their antiproliferative effect. A549 human lung cells were used as cell cycle targets to compare the effects of discodermolide and discodermolide analogs on perturbation of the cell cycle. Cell cycle analyses were performed as follows: A549 cells were incubated at 37° C. in 5% CO2 in air in the presence or absence of varying concentrations of discodermolide or discodermolide analogs for 24 hr. Cells were harvested, fixed in ethanol, washed, and stained with 0.02 mg/mL of propidium iodide (P.I.) together with 0.1 mg/mL of RNAse A. Stained preparations were analyzed on a Coulter EPICS ELITE flow cytometer with 488 nm excitation. Fluorescence measurements and resulting DNA histograms were collected from at least 10,000 P.I. stained cells at an emission wavelength of 690 nm. Raw histogram data was further analyzed using a cell cycle analysis program (Multicycle, Phoenix Flow Systems).

[5] = Homo sapiens, A549, 72 hours exposure
[6] = Mus musculus, P388, 48-h exposure

Compound	IC50 A549 cells ([1]; 72 hours exposure) [µg/mL]	pIC50 ([1]; 72 hours exposure)	Microtubule bundling in A549 cells ([2]; Table 12)	IC50 P388 cells ([3]; 48-h exposure) [µg/mL]	pIC50 ([3]; 48-h exposure)	Purified tubulin polymerization, temperature at which polymerization commences [4]	Purified tubulin polymerization at 10 μM ([4]; subjective rating)	other results
C=CC=CC(C)C(OC(N)=O)C(C)C(O)C(C)CC(C)=CC(C)C(O)C(C)C=CC(O)CC1OC(=O)C(C)=CC1C (stereo not drawn) [3-Deoxy-2Δ-discodermolide (VI), 3-deoxy-2Δ-discodermolide]	0.0125	7.66	+++	0.02	7.47	21 °C	+	
C=CC=CC(C)C(OC(N)=O)C(C)C(O)C(C)CC(C)=CC(C)C(OC(C)=O)C(C)C=CC(O)CC1OC(=O)C(C)=CC1C (stereo not drawn) [3-Deoxy-2Δ-discodermolide-11-acetate (X), 3-deoxy-2Δ-discodermolide-11-acetate]	1.93	5.50	−	0.32	6.28		−	
C=CC=CC(C)C(OC(N)=O)C(C)C(OC(C)=O)C(C)CC(C)=CC(C)C(OC(C)=O)C(C)C=CC(CC1OC(=O)C(C)=CC1C)OC(C)=O (stereo not drawn) [3-deoxy-2Δ-discodermolide-7,11,17-triacetate]	>5	< 5.15	−	4.96	5.15		−	
C=CC=CC(C)C(OC(N)=O)C(C)C(O)C(C)CC(C)=CC(C)C(O)C(C)C=CC(CC1OC(=O)C(C)=CC1C)OC(=O)CCC(=O)O (stereo not drawn) [3-deoxy-2Δ-discodermolide-7-succinate]			−	>5	< 5.13			Microtubule bundling observation ([2]; 10 nM): indistinguishable from that of the untreated (control) cells; Microtubule bundling observation ([2]; 100 nM): indistinguishable from that of the untreated (control) cells; Microtubule bundling observation ([2]; 1000 nM): no bundling; Cell cycle effects (A549 human lung cells; 10 nM): indistinguishable from the untreated (control) cells; Cell cycle effects (100 nM) (A549 human lung cells; 100 nM, 24 hr, A549): indistinguishable from the untreated (control) cells; Cell cycle effects (A549 human lung cells; 1000 nM): indistinguishable from the untreated (control) cells; Cell cycle effects (A549 human lung cells; 3000 nM (highest concentration tested)): no cell cycle effects were noted; also recorded: slight induction of apoptosis and a general necrosis
C=CC=CC(C)C(OC(N)=O)C(C)C(OC(C)=O)C(C)CC(C)=CC(C)C(OC(C)=O)C(C)C=CC(O)CC1OC(=O)C(C)=CC1C (stereo not drawn) [3-deoxy-2Δ-discodermolide-11,17-diacetate]	>5	< 5.12	−	>5	< 5.12		−	
C=CC=CC(C)C(OC(N)=O)C(C)C(OC(C)=O)C(C)CC(C)=CC(C)C(O)C(C)C=CC(O)CC1OC(=O)C(C)=CC1C (stereo not drawn) [3-deoxy-2Δ-discodermolide-17-acetate]	>5	< 5.09	−	>5	< 5.09		−	
C=C/C=C\[C@H](C)[C@H](OC(N)=O)[C@@H](C)[C@H](O)[C@@H](C)C/C(C)=C\[C@H](C)[C@@H](O)[C@@H](C)/C=C\[C@@H](O)C[C@@H]1OC(=O)[C@H](C)[C@@H](O)[C@H]1C [Discodermolide (I), discodermolide]						4 °C		IC50 [1, 5]: 0.008 µg/mL; pIC50 [1, 5]: 7.87; Microtubule bundling in A549 cells ([2]; Table 11): +++; IC50 [3, 6]: 0.021 µg/mL; pIC50 [3, 6]: 7.46; Purified tubulin polymerization by 10 μM ([4]; subjective rating, Table 11): +++
Methyldiscodermolate [Methyldiscodermolate (V)]	0.045	7.13		0.04	7.18	(12° C.)		Microtubule bundling in A549 cells ([2]; Table 11): +
